From ChEMBL document CHEMBL1138296, “Synthesis and biological evaluation of alpha-halogenated bisphosphonate and phosphonocarboxylate analogues of risedronate” (J Med Chem, 2007)
Calls of active or inactive are those of the source. The rule behind the calls is not given here.

What was measured:
[1] = target: T1, Farnesyl pyrophosphate synthase (Homo sapiens, UniProt P14324); assay: Inhibition of human cloned FPPS expressed in Escherichia col […]
T1 sequence (P14324 whole entry): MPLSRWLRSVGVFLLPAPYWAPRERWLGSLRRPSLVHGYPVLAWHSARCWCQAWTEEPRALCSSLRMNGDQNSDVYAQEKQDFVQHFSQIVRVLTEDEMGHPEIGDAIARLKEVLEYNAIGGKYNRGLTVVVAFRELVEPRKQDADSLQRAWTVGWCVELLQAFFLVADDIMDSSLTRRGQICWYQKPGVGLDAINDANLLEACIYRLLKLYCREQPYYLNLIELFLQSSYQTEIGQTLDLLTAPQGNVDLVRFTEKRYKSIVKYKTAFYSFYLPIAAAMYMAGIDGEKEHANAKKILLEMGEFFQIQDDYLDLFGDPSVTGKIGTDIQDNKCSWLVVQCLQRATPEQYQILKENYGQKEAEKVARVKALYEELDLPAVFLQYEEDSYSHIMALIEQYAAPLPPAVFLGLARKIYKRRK

[2] = Bone mineral affinity on hydroxyaptite assessed as retention time by chromatography; format: functional
J744 [3] = assay: Inhibition of RGGT mediated Rap1A prenylation in […] cells; format: cell-based; details: Mus musculus
[4] = Reduction of viability of mouse […] cells after 48 hrs; format: cell-based
[5] = Inhibition of RGGT; set-up: species or system Homo sapiens
J744 [6] = assay: Inhibition of RGGT mediated Rab11 prenylation in […] cells; format: cell-based; details: Mus musculus

IC50 [1] [µM] | IC50 [5] [µM] | SMILES | TIME [2] [h] | MED (J744 [3]) [µM] | IC50 [4] [µM] | Activity [2] | MED (J744 [6]) [µM]
> 600 | 16.3 | O=C(O)C(F)(Cc1cccnc1)P(=O)(O)O (stereo not drawn) |  |  | 1.8 | inactive | 31
> 60 | 17.7 | O=C(O)C(Br)(Cc1cccnc1)P(=O)(O)O (stereo not drawn) |  |  | 5.5 | inactive | 125
254 | 24.1 | O=C(O)[C@@](O)(Cc1cccnc1)P(=O)(O)O | 0.0767 |  | 2.3 |  | 62
> 600 | 16.4 | O=C(O)C(Cl)(Cc1cccnc1)P(=O)(O)O (stereo not drawn) |  |  | 5 | inactive | 125
0.0164 |  | O=P(O)(O)C(F)(Cc1cccnc1)P(=O)(O)O | 0.0988 | 100 | 140 |  | 

The remaining lines, values behind:

SMILES | IC50 [1] [µM] | IC50 [5] [µM] | TIME [2] [h] | MED (J744 [3]) [µM] | IC50 [4] [µM] | Activity [2] | MED (J744 [6]) [µM]
O=P(O)(O)C(Br)(Cc1cccnc1)P(=O)(O)O | 0.34 |  | 0.0955 | 400 | 673 |  | 
O=P(O)(O)C(Cl)(Cc1cccnc1)P(=O)(O)O | 0.0946 |  | 0.101 | 400 | 679 |  | 
O=P(O)(O)C(Cc1cccnc1)P(=O)(O)O | 0.0342 |  | 0.0972 | 50 | 212 |  | 
O=C(O)C(Cc1cccnc1)P(=O)(O)O (stereo not drawn) |  | 35.3 |  |  | 2.6 | inactive | 62
O=P(O)(O)C(O)(Cc1cccnc1)P(=O)(O)O [RISEDRONIC ACID] |  |  | 0.166 | 12 | 31 |  | 
